This note sets out measurements from PubChem BioAssay (NCI).

Test systems include HS 578T breast; HCT-116 colon; RXF 393 renal; NCI-H522 lung; NCI/ADR-RES ovarian; M14 melanoma; MALME-3M melanoma; RPMI-8226 leukemia; BT-549 breast; NCI-H460 lung.
What all share (assay): NCI anticancer screen, dose series, 48 h

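Method: 48-hour compound exposure of cells in 96-well plates, five concentrations, linear interpolation of endpoints. TGI: total growth inhibition.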

With `Nc1ccc2c(c1)C(=O)c1ccccc1-2`, the TGI with HS 578T breast, with HCT-116 colon, in the assay on RXF 393 renal, in the assay with NCI-H522 lung, with NCI/ADR-RES ovarian and with M14 melanoma was greater than 100 µM in each case. Moreover, the TGI in the assay with MALME-3M melanoma was greater than 100 µM; with RPMI-8226 leukemia it was greater than 100 µM; in the assay on BT-549 breast, 83.5 µM; with NCI-H460 lung it was greater than 100 µM.

`Cc1cc(C)c(S(=O)(=O)N(CCCCN)OCCCN)c(C)c1`: the TGI with HS 578T breast turned out to be 34.4 µM; with HCT-116 colon it was 30.9 µM; with RXF 393 renal, 31.6 µM; in the assay on NCI-H522 lung it was 29.9 µM; in the assay with NCI/ADR-RES ovarian, 36.5 µM; with M14 melanoma it was 35.9 µM. In addition, the TGI came to 36.3 µM with MALME-3M melanoma, 26 µM with RPMI-8226 leukemia, 33.8 µM in the assay on BT-549 breast and 33.4 µM in the assay with NCI-H460 lung.

As to `CC[C@]12C=CCN3CCC4(c5cc(N=Nc6ccccc6)c(OC)cc5N(C)[C@H]4[C@@](O)(C(=O)OC)[C@@H]1OC(C)=O)[C@@H]32` (stereo not given in full), the TGI worked out at 39 µM in the assay on HS 578T breast; 31.2 µM with HCT-116 colon; 30.9 µM with RXF 393 renal; 33 µM with NCI-H522 lung; 55.6 µM in the assay on NCI/ADR-RES ovarian; 43.6 µM with M14 melanoma. For the same compound, the TGI in the assay with MALME-3M melanoma turned out to be 33.5 µM; with RPMI-8226 leukemia it was 59.3 µM; with BT-549 breast, 35.6 µM; in the assay on NCI-H460 lung, 33.5 µM.

For `CC1=C(C(=O)OCCc2ccc([N+](=O)[O-])cc2)C(c2ccccc2[N+](=O)[O-])C(C(=O)OC(C)C)=C(C)N1` (stereo not given), the TGI is greater than 100 µM in the assay with HS 578T breast; greater than 100 µM with HCT-116 colon; 35.9 µM in the assay with RXF 393 renal; 7.82 µM in the assay with NCI-H522 lung; 20 µM with NCI/ADR-RES ovarian; 36.7 µM with M14 melanoma. Further, the TGI with MALME-3M melanoma was greater than 100 µM; with RPMI-8226 leukemia, greater than 100 µM; with BT-549 breast, 71.2 µM; in the assay with NCI-H460 lung, greater than 100 µM.

For `CNC(=O)CCC(NC(C)=O)C(=O)NC(Cc1ccc(NC(=O)CCCCC(C)=O)cc1)C(=O)NC(CCC(=O)NC)C(=O)NC` (stereo not given), the TGI with HS 578T breast, in the assay on HCT-116 colon, in the assay on RXF 393 renal, in the assay with NCI-H522 lung, with NCI/ADR-RES ovarian and with M14 melanoma was greater than 100 µM each time. The TGI with MALME-3M melanoma, in the assay on RPMI-8226 leukemia, in the assay on BT-549 breast and in the assay on NCI-H460 lung was greater than 100 µM throughout.

`S=C(N/N=C\C=N/NC(=S)N1CCCCCC1)N1CCCCCC1`: the TGI in the assay on HS 578T breast was greater than 100 µM; in the assay on HCT-116 colon, greater than 100 µM; in the assay on RXF 393 renal it was 90.9 µM; in the assay on NCI-H522 lung it was greater than 100 µM; in the assay on NCI/ADR-RES ovarian, greater than 85.9 µM; with M14 melanoma, greater than 100 µM. The TGI in the assay on MALME-3M melanoma was greater than 93.7 µM; in the assay with RPMI-8226 leukemia, greater than 100 µM; in the assay on BT-549 breast, greater than 100 µM; in the assay with NCI-H460 lung it was greater than 100 µM.

In the case of `O=C(O)/C=C(/CC(=O)O)C(=O)O`, the TGI in the assay on HS 578T breast amounted to 40.7 µM; in the assay with HCT-116 colon, 35.6 µM; in the assay with RXF 393 renal, 34.8 µM; with NCI-H522 lung it was 35.7 µM; with NCI/ADR-RES ovarian it was 46.1 µM; in the assay with M14 melanoma, 44.2 µM. The TGI was 37.3 µM in the assay on MALME-3M melanoma, 37 µM in the assay on RPMI-8226 leukemia, 43.7 µM in the assay on BT-549 breast and greater than 100 µM in the assay with NCI-H460 lung.

For `Cc1nnc2cc(C(=O)O)c3ccccc3n2c1=O`, the TGI in the assay on HS 578T breast, in the assay with HCT-116 colon, in the assay with RXF 393 renal, in the assay with NCI-H522 lung, in the assay with NCI/ADR-RES ovarian and with M14 melanoma was greater than 10 µM each time. Besides, the TGI in the assay on MALME-3M melanoma, with RPMI-8226 leukemia, in the assay on BT-549 breast and with NCI-H460 lung was greater than 10 µM in each case.

For the compound `O=C(N/N=C\c1cccc2ccccc12)Nc1ccc([N+](=O)[O-])cc1`, the TGI with HS 578T breast was greater than 100 µM; with HCT-116 colon it was greater than 53.7 µM; in the assay with RXF 393 renal, greater than 42.6 µM; in the assay with NCI-H522 lung, greater than 53.9 µM; in the assay with NCI/ADR-RES ovarian, greater than 71.4 µM; with M14 melanoma, greater than 100 µM. For the same compound, the TGI is greater than 69.4 µM in the assay on MALME-3M melanoma, greater than 100 µM in the assay with RPMI-8226 leukemia, greater than 66.4 µM in the assay with BT-549 breast and greater than 76.6 µM in the assay with NCI-H460 lung.

For the compound `Cn1c(=O)c2c(-c3ccccc3)onc2n(C)c1=O`, the TGI in the assay with HS 578T breast was 75.6 µM; in the assay on HCT-116 colon, greater than 100 µM; with RXF 393 renal it was greater than 100 µM; with NCI-H522 lung, greater than 100 µM; with NCI/ADR-RES ovarian it was greater than 100 µM; in the assay with M14 melanoma it was greater than 100 µM. Besides, the TGI is greater than 100 µM in the assay with MALME-3M melanoma, 57.6 µM in the assay on RPMI-8226 leukemia, 45.2 µM in the assay on BT-549 breast and greater than 100 µM in the assay on NCI-H460 lung.

Consider `CC(=O)N(CN1C(=O)CCC1C(=O)O)c1ccccc1` (stereo not given), for which the TGI in the assay with HS 578T breast, in the assay with HCT-116 colon, with RXF 393 renal, in the assay with NCI-H522 lung, in the assay with NCI/ADR-RES ovarian and with M14 melanoma was greater than 100 µM each time. Moreover, the TGI in the assay with MALME-3M melanoma, with RPMI-8226 leukemia, in the assay with BT-549 breast and with NCI-H460 lung was greater than 100 µM each time.

As for `CCOC(=O)c1ccc(C(=O)C(C(C)=O)C(=O)OC(C)(C)C)n1C` (stereo not given), the TGI in the assay with HS 578T breast, in the assay with HCT-116 colon, with RXF 393 renal, with NCI-H522 lung, in the assay on NCI/ADR-RES ovarian and in the assay with M14 melanoma was greater than 100 µM in each case. Further, the TGI with MALME-3M melanoma, with RPMI-8226 leukemia, in the assay on BT-549 breast and with NCI-H460 lung was greater than 100 µM throughout.
